Measurements: patent US10899738B2 (THE REGENTS OF THE UNIVERSITY OF MICHIGAN, priority 2016, dated 2021)

Each molecule was assayed against menin protein (Homo sapiens (Human), UniProt O00255) (assay: biochemical). Conditions: FP competitive binding; menin protein 4 nM, FAM-MM2 probe 2 nM.
Format: binding
Procedure, shortened: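 Competitive fluorescence polarization assay using FAM-labelled MLL1 peptide probe FAM-MM2 (2 nM final) preincubated with menin (4 nM final) in PBS with 0.02% bovine γ-globulin, 4% DMSO and 0.01% Triton X-100. Compounds were added and incubated 30 min at room temperature. IC50 came from nonlinear regression of competition curves, with Ki also derived.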

Chain of menin protein (O00255 whole entry): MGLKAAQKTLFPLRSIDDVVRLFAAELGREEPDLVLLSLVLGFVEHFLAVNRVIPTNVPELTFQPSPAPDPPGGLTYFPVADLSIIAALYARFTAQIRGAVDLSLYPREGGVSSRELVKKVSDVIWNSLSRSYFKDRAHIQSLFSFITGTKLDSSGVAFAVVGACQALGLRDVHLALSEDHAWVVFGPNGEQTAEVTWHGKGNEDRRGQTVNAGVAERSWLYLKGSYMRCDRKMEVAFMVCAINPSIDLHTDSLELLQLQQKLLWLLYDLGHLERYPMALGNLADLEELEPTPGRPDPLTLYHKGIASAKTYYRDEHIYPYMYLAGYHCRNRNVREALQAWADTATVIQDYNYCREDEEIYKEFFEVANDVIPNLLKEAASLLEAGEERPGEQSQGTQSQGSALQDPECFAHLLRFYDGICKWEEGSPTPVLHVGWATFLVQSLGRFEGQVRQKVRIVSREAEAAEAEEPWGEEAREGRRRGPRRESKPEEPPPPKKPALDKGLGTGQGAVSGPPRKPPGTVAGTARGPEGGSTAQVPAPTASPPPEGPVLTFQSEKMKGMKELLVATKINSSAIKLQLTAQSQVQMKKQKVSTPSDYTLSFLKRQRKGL

Structure (SMILES) | Menin Binding Affinity IC50 (μM)
N#Cc1ccc(OCCCNc2ncc(C(O)(c3ccccc3)C3CCCC3)cn2)cc1 (centres unmarked) [compound 124, 4-(3-((5-(cyclopentyl(hydroxy)(phenyl)methyl)pyrimidin-2-yl)amino)propoxy)benzonitrile] | No inhibition

Same assay, conditions: FP competitive binding; menin protein 4 nM, FAM-MM2 probe 2 nM; read-out: Menin Binding Affinity IC50

Structure (SMILES) | IC50 [nM]
N#Cc1ccc(OC2CC(N3CCC(C4(C5CCCC5)NCCc5ccccc54)CC3)C2)cc1 (single isomer, unassigned) [compound 131, 4-((1r,3r)-3-(4-(1-cyclopentyl-1,2,3,4-tetrahydroisoquinolin-1-yl)piperidin-1-yl)cyclobutoxy)benzonitrile] | 1100
O=S(=O)(c1ccc(OC2CC(N3CCC(C4(C5CCCC5)NCCc5ccccc54)CC3)C2)cc1)C1CC1 (centres unmarked) [compound 90, 1-cyclopentyl-1-(1-((1r,3r)-3-(4-(cyclopropylsulfonyl)phenoxy)cyclobutyl)piperidin-4-yl)-1,2,3,4-tetrahydroisoquinoline] | 2400
CC(=O)O[C@H]1CCC[C@@H]1C(C#N)(c1cccc(F)c1)C1CCN(CC2CN(c3ccc(CC(F)(F)F)cc3)C2)CC1 (mixture of isomers) [compound 419, rac-(1S,2R)-2-(cyano(3-fluorophenyl)(1-((1-(4-(2,2,2-trifluoroethyl)phenyl)azetidin-3-yl)methyl)piperidin-4-yl)methyl)cyclopentyl acetate] | 293
CN([C@@H]1CCC[C@H]1C(C#N)(c1ccccc1)C1CCN(CC2CN(c3ccc(S(=O)(=O)C4CC4)cc3)C2)CC1)S(C)(=O)=O (mixture of isomers) [compound 274, rac-N-((1R,2S)-2-(cyano(1-((1-(4-(cyclopropylsulfonyl)phenyl)azetidin-3-yl)methyl)piperidin-4-yl)(phenyl)methyl)cyclopentyl)-N-methanesulfonamide] | 19200
CC(=O)O[C@@H]1CCC[C@H]1C(C#N)(c1ccccc1)C1CCN(CC2CN(c3ccc(S(=O)(=O)C4CC4)cc3)C2)CC1 (mixture of isomers) [compound 188, rac-((1R,2S)-2-(cyano(1-((1-(4-(cyclopropylsulfonyl)phenyl)azetidin-3-yl)methyl)piperidin-4-yl)(phenyl)methyl)cyclopentyl acetate] | 1700
CNC(=O)O[C@@H]1CCC[C@H]1C(C#N)(c1ccccc1)C1CCN(CC2CN(c3ccc(C(=O)OC)cc3)C2)CC1 (mixture of isomers) [compound 374, methyl rac-4-(3-((4-(cyano((1S,2R)-2-((methylcarbamoyl)oxy)cyclopentyl)(phenyl)methyl)piperidin-1-yl)methyl)azetidin-1-yl)benzoate] | 4700
N#Cc1ccc(NCCCN2CCC(C3(C4CCCC4)NCCc4ccccc43)CC2)cn1 (centres unmarked) [compound 59, 5-((3-(4-(1-cyclopentyl-1,2,3,4-tetrahydroisoquinolin-1-yl)piperidin-1-yl)propyl)amino)picolinonitrile] | 2300
COC(=O)N[C@@H]1CCC[C@H]1C(C#N)(c1ccccc1)C1CCN(CC2CN(c3ccc(S(=O)(=O)c4ccc(C(=O)O)cc4)cc3)C2)CC1 (mixture of isomers) [compound 352, rac-4-((4-(3-((4-(cyano((1S,2R)-2-((methoxycarbonyl)amino)cyclopentyl)(phenyl)methyl)piperidin-1-yl)methyl)azetidin-1-yl)phenyl)sulfonyl)benzoic acid] | 2700
CN(C)C(=O)N[C@@H]1CCC[C@H]1C(Cn1ccnc1)(c1ccccc1)C1CCN(CC2CN(c3ccc(S(=O)(=O)c4cnn(C)c4)cc3)C2)CC1 (mixture of isomers) [compound 377, rac-3-((1R,2S)-2-(2-(1H-imidazol-1-yl)-1-(1-((1-(4-((1-methyl-1H-pyrazol-4-yl)sulfonyl)phenyl)azetidin-3-yl)methyl)piperidin-4-yl)-1-phenylethyl)cyclopentyl)-1,1-dimethylurea] | 1130
CC(=O)O[C@@H]1CCC[C@H]1C(C#N)(c1ccccc1)C1CCN(CC2CN(c3ccc(C(=O)O)cc3)C2)CC1 (mixture of isomers) [compound 389, rac-4-(3-((4-(((1S,2R)-2-acetoxycyclopentyl)(cyano) (phenyl)methyl)piperidin-1-yl)methyl)azetidin-1-yl)benzoic acid] | 6500
N#Cc1ccc(OCCCN2CCC(C3(C4CCc5ccccc54)NCCc4ccccc43)CC2)cc1 (centres unmarked) [compound 244, 4-(3-(4-(1-(2,3-dihydro-1H-inden-1-yl)-1,2,3,4-tetrahydroisoquinolin-1-yl)piperidin-1-yl)propoxy)benzonitrile] | 2300
CCC(C)CC1(C2CCN(CCCOc3ccc(C#N)cc3)CC2)NCCc2ccccc21 (centres unmarked) [compound 172, 4-(3-(4-(1-(2-methylbutyl)-1,2,3,4-tetrahydroisoquinolin-1-yl)piperidin-1-yl)propoxy)benzonitrile] | 11200
CC(=O)O[C@@H]1CCC[C@H]1C(C#N)(c1ccccc1)C1CCN(CC2CN(c3ccc(S(C)(=O)=O)cc3)C2)CC1 (mixture of isomers) [compound 184, rac-(1R,2S)-2-(cyano(1-((1-(4-(methylsulfonyl)phenyl)azetidin-3-yl)methyl)piperidin-4-yl)(phenyl)methyl)cyclopentyl actate] | 2600
COCC(C1CC1)C(C#N)(c1ccccc1)C1CCN(CCCOc2ccc(C#N)cc2)CC1 (centres unmarked) [compound 329] | 19000
N#Cc1ccc(N2CC(CN3CCC(C4(C5CCCC5)NCCc5ccccc54)CC3)C2)c(Cl)c1 (centres unmarked) [compound 139, 3-chloro-4-(3-((4-(1-cyclopentyl-1,2,3,4-tetrahydroisoquinolin-1-yl)piperidin-1-yl)methyl)azetidin-1-yl)benzonitrile] | 73
N#Cc1cc2cc(CN3CCC(CC4(C5CCCC5)NCCc5ccccc54)CC3)ccc2[nH]1 (centres unmarked) [compound 112, 5-((4-((1-cyclopentyl-1,2,3,4-tetrahydroisoquinolin-1-yl)methyl)piperidin-1-yl)methyl)-1H-indole-2-carbonitrile] | 41600
CO[C@@H]1CCC[C@H]1C(C#N)(c1ccccc1)C1CCN(CCCOc2ccc(C#N)cc2)CC1 (mixture of isomers) [compound 175, rac-4-(3-(4-(cyano((1S,2R)-2-methoxycyclopentyl)(phenyl)methyl)piperidin-1-yl)propoxy)benzonitrile] | 8800
CNC(=O)O[C@@H]1CCC[C@H]1C(Cn1ccnc1)(c1ccccc1)C1CCN(CC2CN(c3ccc(S(=O)(=O)c4ccccc4)cc3)C2)CC1 (mixture of isomers) [compound 237, rac-(1R,2S)-2-(2-(1H-imidazol-1-yl)-1-phenyl-1-(1-((1-(4-(phenylsulfonyl)phenyl)azetidin-3-yl)methyl)piperidin-4-yl)ethyl)cyclopentyl methylcarbamate] | 42
N#Cc1ccc(OCCCN2CCC(C3(C4CCCC4)NCCc4cc(F)ccc43)CC2)cc1 (centres unmarked) [compound 30, 4-(3-(4-(1-cyclopentyl-6-fluoro-1,2,3,4-tetrahydroisoquinolin-1-yl)piperidin-1-yl)propoxy)benzonitrile] | 439
c1ccc2c(c1)CCNC2(CC1CCNCC1)C1CCCC1 (centres unmarked) [compound 107, 1-cyclopentyl-1-(piperidin-4-ylmethyl)-1,2,3,4-tetrahydroisoquinoline] | 299000
N#Cc1cc2cc(CN3CCC(C4(C5CCCC5)NCCc5ccccc54)CC3)ccc2[nH]1 (centres unmarked) [compound 114, 5-((4-(1-cyclopentyl-1,2,3,4-tetrahydroisoquinolin-1-yl)piperidin-1-yl)methyl)-1H-indol-2-carbonitrile] | 32600
CC(=O)N[C@@H]1CCC[C@H]1C1(C2CCN(CC3CN(c4ccc(S(=O)(=O)c5cnn(C)c5)cc4)C3)CC2)CNCc2ccccc21 (mixture of isomers) [compound 287, rac-N-((1R,2S)-2-(4-(1-((1-(4-((1-methyl-1H-pyrazol-4-yl)sulfonyl)phenyl)azetidin-3-yl)methyl)piperidin-4-yl)-1,2,3,4-tetrahydroisoquinolin-4-yl)cyclopentyl)acetamide] | 247
CC(=O)N1CCCC(C(C#N)(c2ccccc2)C2CCN(CCCOc3ccc(C#N)cc3)CC2)C1 (centres unmarked) [compound 307, 4-(3-(4-((1-acetylpiperidin-3-yl)(cyano)(phenyl)methyl)piperidin-1-yl)propoxy)benzontrile] | 30600
CNC(=O)N[C@@H]1CCC[C@H]1C(CN)(c1ccccc1)C1CCN(CC2CN(c3ccc(S(=O)(=O)c4ccccc4)cc3)C2)CC1 (mixture of isomers) [compound 322, rac-1-((1R,2S)-2-(2-amino-1-phenyl-1-(1-((1-(4-(phenylsulfonyl)phenyl)azetidin-3-yl)methyl)piperidin-4-yl)ethyl)cyclopentyl)-3-methylurea] | 108
CNC(=O)N[C@@H]1CCC[C@H]1C(CNC(=O)c1cocn1)(c1ccccc1)C1CCN(CC2CN(c3ccc(C#N)cc3)C2)CC1 (mixture of isomers) [compound 379, rac-N-(2-(1-((1-(4-cyanophenyl)azetidin-3-yl)methyl)piperidin-4-yl)-2-((1S,2R)-2-(3-methylureido)cyclopentyl)-2-phenylethyl)oxazole-4-carboxamide] | 3800
CC(=O)O[C@H]1CCC[C@@H]1C1(C2CCN(CC3CN(c4ccc(S(=O)(=O)c5ccnc(C)c5)cc4)C3)CC2)CN(C)Cc2ccccc21 (mixture of isomers) [compound 202, rac-(1R,2S)-2-(2-methyl-4-(1-((1-(4-((2-methylpyridin-4-yl)sulfonyl)phenyl)azetidin-3-yl)methyl)piperidin-4-yl)-1,2,3,4-tetrahydroisoquinolin-4-yl)cyclopentyl acetate] | 113
CC(C)C(=O)O[C@@H]1CCC[C@H]1C(C#N)(c1ccccc1)C1CCN(CC2CN(c3ccc(S(=O)(=O)c4ccncc4)cc3)C2)CC1 (mixture of isomers) [compound 194, rac-(1R,2S)-2-(cyano(phenyl)(1-((1-(4-(pyridin-4-ylsulfonyl)phenyl)azetidin-3-yl)methyl)piperidin-4-yl)methyl)cyclopentyl isobutyrate] | 165000
N#Cc1ccc(OCCCCN2CC(C3(C4CCCC4)NCCc4ccccc43)C2)cc1 (centres unmarked) [compound 62, 4-(4-(3-(1-cyclopentyl-1,2,3,4-tetrahydroisoquinolin-1-yl)azetidin-1-yl)butoxy)benzonitrile] | 36200
